The target in data set [1] is T1, Gonadotropin-releasing hormone receptor (Homo sapiens, UniProt P30968).
T1 sequence (P30968 whole entry): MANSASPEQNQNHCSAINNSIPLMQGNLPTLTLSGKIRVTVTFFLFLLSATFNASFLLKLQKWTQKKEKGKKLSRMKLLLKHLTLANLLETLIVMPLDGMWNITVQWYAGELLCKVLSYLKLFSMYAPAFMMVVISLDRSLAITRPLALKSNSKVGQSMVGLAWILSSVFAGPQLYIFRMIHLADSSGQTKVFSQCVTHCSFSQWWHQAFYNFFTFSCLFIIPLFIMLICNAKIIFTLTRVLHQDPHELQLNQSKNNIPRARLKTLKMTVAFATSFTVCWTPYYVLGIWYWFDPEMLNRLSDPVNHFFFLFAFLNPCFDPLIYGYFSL
Description: Antagonist activity at human GnRH receptor assessed as inhibition of [D-Trp6]-GnRH-stimulated [3H]IP […]. Type of data set: functional.

Data set [2] concerns the target T1, Gonadotropin-releasing hormone receptor. In words: Displacement of [D-Trp6]-GnRH from human recombinant GnRH receptor.
Data set [3] deals with T2, Gonadotropin-releasing hormone receptor (Rattus norvegicus, UniProt P30969).
T2 sequence (P30969 whole entry): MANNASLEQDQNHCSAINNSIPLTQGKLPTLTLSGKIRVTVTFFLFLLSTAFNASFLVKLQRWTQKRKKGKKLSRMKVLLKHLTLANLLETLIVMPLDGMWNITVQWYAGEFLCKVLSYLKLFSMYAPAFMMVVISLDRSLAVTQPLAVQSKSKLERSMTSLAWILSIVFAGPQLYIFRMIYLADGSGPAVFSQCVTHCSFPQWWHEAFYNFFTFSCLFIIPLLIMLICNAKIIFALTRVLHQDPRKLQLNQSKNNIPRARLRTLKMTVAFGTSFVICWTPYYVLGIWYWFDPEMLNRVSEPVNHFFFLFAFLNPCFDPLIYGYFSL
In words: Antagonist activity at rat recombinant GnRH receptor assessed as inhibition of [D-Trp6]-GnRH-stimulated LH release from rat pituitary cells. Type of data set: functional, cell-based, Pituitary gland cell.

Data set [4] is described as follows: Aqueous solubility at pH 7.4. The data set is classed as physicochemical.
The nature of data set [5]: Permeability across artificial membrane. Type of data set: ADME. Particulars: PAMPA; read-out: permeability. On the technique in general: PAMPA measures passive passage across an artificial lipid membrane.
In data set [6] the target is T2, Gonadotropin-releasing hormone receptor. Description: Displacement of [D-Trp6]-GnRH from rat recombinant GnRH receptor.
A short description of data set [7]: Metabolic stability in rat liver microsomes assessed as half life. Type of data set: ADME, Microsome.
A short description of data set [8]: Half life in castrated rat at 1 mg/kg, iv. Type of data set: ADME, organism-based. Also noted: dose 1 mg/kg, route intravenous. Particulars: male, in vivo.
Data set [9] is described as follows: Clearance in castrated rat plasma at 1 mg/kg, iv. Type of data set: ADME, organism-based. Further details: dose 1 mg/kg, route intravenous. Particulars: male.
The nature of data set [10]: Volume of distribution at steady state in castrated rat at 1 mg/kg, iv. The data set is classed as ADME, organism-based. Also noted: dose 1 mg/kg, route intravenous. As to conditions: male, in vivo, read-out: Vdss.
A short description of data set [11]: AUC (0 to infinity) in castrated rat at 1 mg/kg, iv. Type of data set: ADME, organism-based. Further details: time infinity, dose 1 mg/kg, route intravenous. Particulars: male, plasma.
Data set [12] in a line: Half life in castrated rat at 20 mg/kg, po. Type of data set: ADME, organism-based. Also noted: dose 20 mg/kg, route oral. As to conditions: male, in vivo.
Data set [13] is described as follows: Cmax in castrated rat at 20 mg/kg, po. The data set is classed as ADME, organism-based. Further details: dose 20 mg/kg, route oral. As to conditions: male, in vivo.
The nature of data set [14]: Tmax in castrated rat at 20 mg/kg, po. Particulars: male, in vivo. Also noted: dose 20 mg/kg, route oral. Type of data set: ADME, organism-based.
A short description of data set [15]: AUC (0 to infinity) in castrated rat at 20 mg/kg, po. The data set is classed as ADME, organism-based. Also noted: time infinity, dose 20 mg/kg, route oral. As to conditions: male, plasma.
The nature of data set [16]: Oral bioavailability in castrated rat at 20 mg/kg. The data set is classed as ADME, organism-based. As to conditions: male, in vivo.
Data set [17] concerns Rattus norvegicus. Description: Reduction of serum LH level in castrated rat at 30 mg/kg, po after 1 hr. The data set is classed as functional, organism-based. Further details: dose 30 mg/kg.
Data set [18] has as its target Voltage-gated inwardly rectifying potassium channel KCNH2 (Homo sapiens, UniProt Q12809). In words: Inhibition of human ERG potassium channel at 2 uM.
The target in data set [19] is Opioid receptors; mu/kappa/delta (Homo sapiens, UniProt P41145+P41143+P35372). In words: Inhibition of human non-selective opioid receptor.
The target in the next data set is T3, Substance-K receptor (Homo sapiens, UniProt P21452).
T3 sequence (P21452 whole entry): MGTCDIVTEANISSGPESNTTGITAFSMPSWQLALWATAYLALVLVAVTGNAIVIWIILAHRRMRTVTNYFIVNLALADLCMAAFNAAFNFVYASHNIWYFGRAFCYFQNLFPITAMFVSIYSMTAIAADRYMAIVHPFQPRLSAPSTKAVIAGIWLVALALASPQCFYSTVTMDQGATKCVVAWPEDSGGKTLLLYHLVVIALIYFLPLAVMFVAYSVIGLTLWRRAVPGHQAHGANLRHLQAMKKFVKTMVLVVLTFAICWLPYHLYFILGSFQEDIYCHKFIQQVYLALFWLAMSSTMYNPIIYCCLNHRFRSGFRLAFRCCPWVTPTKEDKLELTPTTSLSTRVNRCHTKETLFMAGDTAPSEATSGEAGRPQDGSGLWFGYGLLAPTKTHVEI
Description: Inhibition of human neurokinin NK2 receptor.

The target in the next data set is Histamine H2 receptor (Homo sapiens, UniProt P25021). In words: Inhibition of human histamine H2 receptor.
Histamine H2 receptor, sequence (P25021 whole entry): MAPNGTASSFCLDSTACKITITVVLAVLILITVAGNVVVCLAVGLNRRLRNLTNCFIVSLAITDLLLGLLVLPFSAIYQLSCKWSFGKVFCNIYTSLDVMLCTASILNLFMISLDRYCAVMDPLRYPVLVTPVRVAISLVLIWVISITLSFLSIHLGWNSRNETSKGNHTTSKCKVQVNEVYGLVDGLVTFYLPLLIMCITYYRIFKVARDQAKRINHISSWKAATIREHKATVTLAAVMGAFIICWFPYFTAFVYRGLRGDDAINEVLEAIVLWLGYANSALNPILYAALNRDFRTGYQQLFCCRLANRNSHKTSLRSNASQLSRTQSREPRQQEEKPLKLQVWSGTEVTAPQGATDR
Data set [20] deals with Rattus norvegicus. In words: Reduction of serum LH level in castrated rat at 30 mg/kg, po after 6 hr. Type of data set: functional, organism-based. Also noted: dose 30 mg/kg.

As usually defined, the IC50 is the concentration needed to halve the response being measured. One may read the solubility as how much of the substance goes into solution per volume. In general, half-life refers to the time needed for the level to fall by half in the phase considered. The term clearance denotes the rate of elimination divided by the concentration. Low values mean a low capacity for elimination, high ones a high capacity for elimination. What is called AUC(0-inf) is the area under the concentration-time curve extrapolated to infinity. A higher AUC(0-inf) goes with more exposure. As a reminder, the Cmax is the maximum level reached in the sampled fluid or tissue. In general, Tmax refers to the time at which the peak concentration occurs. As usually defined, the bioavailability is the share of a dose that reaches the circulation, judged against a reference dose that is usually intravenous. A lower bioavailability goes with poor availability. What is called Ki is the equilibrium dissociation constant of an inhibitor or competing ligand from its target.

Converted amounts (≈) assume the structure as drawn. The source made the active and inactive calls. A value given as a limit tells only on which side of the number the result lay.

Voltage-gated inwardly rectifying potassium channel KCNH2, sequence (Q12809 whole entry): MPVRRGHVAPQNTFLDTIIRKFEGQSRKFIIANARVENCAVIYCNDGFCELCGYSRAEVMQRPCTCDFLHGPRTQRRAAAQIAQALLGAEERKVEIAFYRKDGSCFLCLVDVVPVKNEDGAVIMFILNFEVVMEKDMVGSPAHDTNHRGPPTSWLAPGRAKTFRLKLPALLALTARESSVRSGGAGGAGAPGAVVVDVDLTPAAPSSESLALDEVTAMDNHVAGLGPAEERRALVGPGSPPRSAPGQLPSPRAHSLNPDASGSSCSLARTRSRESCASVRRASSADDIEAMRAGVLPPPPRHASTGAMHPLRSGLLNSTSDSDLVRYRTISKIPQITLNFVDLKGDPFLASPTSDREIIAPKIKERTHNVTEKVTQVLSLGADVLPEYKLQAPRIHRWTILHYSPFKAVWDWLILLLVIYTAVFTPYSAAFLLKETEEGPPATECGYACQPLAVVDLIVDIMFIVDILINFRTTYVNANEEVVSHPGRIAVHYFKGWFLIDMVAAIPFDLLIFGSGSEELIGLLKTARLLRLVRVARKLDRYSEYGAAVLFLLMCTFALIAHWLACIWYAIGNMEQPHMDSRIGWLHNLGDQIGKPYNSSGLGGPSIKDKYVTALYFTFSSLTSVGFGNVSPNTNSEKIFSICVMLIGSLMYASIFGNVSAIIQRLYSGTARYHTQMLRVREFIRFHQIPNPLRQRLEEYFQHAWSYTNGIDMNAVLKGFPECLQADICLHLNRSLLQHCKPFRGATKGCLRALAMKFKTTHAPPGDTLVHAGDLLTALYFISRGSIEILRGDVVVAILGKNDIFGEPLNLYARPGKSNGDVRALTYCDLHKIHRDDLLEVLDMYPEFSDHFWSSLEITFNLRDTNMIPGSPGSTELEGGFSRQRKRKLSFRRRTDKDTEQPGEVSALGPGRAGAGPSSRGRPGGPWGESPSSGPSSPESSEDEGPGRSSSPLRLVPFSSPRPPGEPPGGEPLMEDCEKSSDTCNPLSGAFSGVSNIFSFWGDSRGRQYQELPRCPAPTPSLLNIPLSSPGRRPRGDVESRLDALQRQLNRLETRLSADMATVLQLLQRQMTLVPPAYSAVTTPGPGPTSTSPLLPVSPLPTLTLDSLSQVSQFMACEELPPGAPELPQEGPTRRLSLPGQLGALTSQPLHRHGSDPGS

Consider `CC(C)(C)c1ccc(-c2nc3c(N4CCN(Cc5ccc6cccnc6c5)CC4)cccc3[nH]2)cc1`, for which the IC50 in [1] was found to be 140 nM; in [2], 24 nM; in data set [3], 540 nM. The same molecule yielded a solubility in [4] of 4 µg/mL (≈ 8.41 µM). Also, the Papp in data set [5] came out at 1.5 ×10⁻⁶ cm/s.
For the molecule `Cn1c(=O)c(=O)[nH]c2ccc(CN3CCN(c4cccc5[nH]c(-c6ccc(C(C)(C)C)cc6)nc45)CC3)cc21`, the half-maximal inhibitory concentration (IC50) in data set [6] stood at 17 nM; in data set [1], 7.4 nM; in data set [2], 3.5 nM; in data set [3], 44 nM. In data set [4], this molecule showed a solubility of under 1 µg/mL.
As for `CC(C)(C)c1ccc(-c2nc3c(N4CCN(Cc5cccc6nccnc56)CC4)cccc3[nH]2)cc1`, the results for the 50% inhibitory concentration (IC50) in data set [1], in [2] and in [3] were 400 nM, 26 nM and 5900 nM, respectively.
Regarding `CC(C)(C)c1ccc(-c2nc3c(N4CCN(Cc5cnc6[nH]c(=O)c(=O)[nH]c6c5)CC4)cccc3[nH]2)cc1`, the IC50 in data set [6] stood at 33 nM; in [1], 9.7 nM; in [2], 1.8 nM; in data set [3] it was 240 nM. Besides, in [4], the solubility was 4 µg/mL (≈ 7.85 µM). Further, the half-life in data set [7] is 30 min. Further, the Papp in data set [5] is under 0.1 ×10⁻⁶ cm/s.
With `CC(C)(C)c1ccc(-c2nc3c(N4CCN(Cc5ccc6[nH]c(=O)c(=O)n(Cc7cccnc7)c6c5)CC4)cccc3[nH]2)cc1`, the IC50 in data set [6] was found to be 47 nM; in data set [1], 14 nM; in data set [2], 5.6 nM; in data set [3], 69 nM. This molecule also displayed a solubility in data set [4] of under 1 µg/mL. Moreover, in data set [7], the half-life was 10 min. Besides, in data set [5], the Papp is 0.05 ×10⁻⁶ cm/s.
On to `CC(C)(C)c1ccc(-c2nc3c(N4CCN(Cc5ccc6c(c5)NCC(=O)N6)CC4)cccc3[nH]2)cc1`, for which the IC50 in data set [6] came to 87 nM; in [1] it was 16 nM; in data set [2], 16 nM; in data set [3] it was 120 nM. In [4], the solubility was determined as 1 µg/mL (≈ 2.02 µM). Also, in data set [7], the half-life was determined as 3 min. The Papp in [5] stood at 0.05 ×10⁻⁶ cm/s.
As for `CC(C)(C)c1ccc(-c2nc3c(N4CCN(Cc5ccc6[nH]c(=O)c(=O)[nH]c6c5)CC4)cccc3[nH]2)cc1`, the solubility in data set [4] was under 1 µg/mL. Also, the half-life in [7] stood at 14 min. Further, in data set [5], the Papp was under 0.1 ×10⁻⁶ cm/s.
With `CC(C)(C)c1ccc(-c2nc3c(N4CCN(Cc5ccc6nccnc6c5)CC4)cccc3[nH]2)cc1`, the half-maximal inhibitory concentration (IC50) was found to be 71 nM in data set [6], 28 nM in data set [1], 12 nM in data set [2] and 350 nM in [3]. Also, the values for the half-life in data set [7], in data set [8] and in data set [12] were 16 min, 162 min and 222 min, respectively. The Papp in [5] worked out at 0.23 ×10⁻⁶ cm/s. In data set [9], the clearance turned out to be 38 mL/min/kg. Also, the Vd in data set [10] turned out to be 6.1 L/kg. The AUC(0-inf) was 447 ng·h/mL in data set [11] and 6640 ng·h/mL in data set [15]. In data set [13], this molecule registered a Cmax of 1330 ng/mL. Besides, the time to peak (Tmax) in data set [14] turned out to be 2 h. This molecule gave a bioavailability in data set [16] of 74%. In addition, the outcome in the data set with Rattus norvegicus [17] and in the data set with Rattus norvegicus [20] was Active. Besides, the Activity result in [18] is “Not Active”. Moreover, the Ki turned out to be 550 nM in data set [19], 330 nM on Substance-K receptor and 850 nM at Histamine H2 receptor.
As to `CC(C)(C)c1ccc(-c2nc3c(N4CCN(Cc5ccc6ncccc6c5)CC4)cccc3[nH]2)cc1`, the IC50 in data set [1] came out at 64 nM; in [2], 21 nM; in data set [3], 830 nM. In data set [4], this molecule came in with a solubility of 2 µg/mL (≈ 4.2 µM). Further, the Papp in [5] is 0.4 ×10⁻⁶ cm/s.

The values are drawn from ChEMBL document CHEMBL1153362, “Discovery of 6-({4-[2-(4-tert-butylphenyl)-1H-benzimidazol-4-yl]piperazin-1-yl}methyl)quinoxaline (WAY-207024): an orally active antagonist of the gonadotropin releasing hormone receptor (GnRH-R)” (J Med Chem, 2009).
